Results on four compounds are retold here after ChEMBL document CHEMBL4431300 (Medchemcomm, 2016).

In brackets after ≈: the same amount, converted by molar mass. Activity calls are given as the source filed them. The rule behind the calls is not given here.

Assay [1] deals with A2780. The assay is described as follows: Antiproliferative activity against human A2780 cells after 72 hrs at 37 degC by MTT assay. The class given is functional, cell-based. As to conditions: A2780, 72 h. (In general: Formazan colour is commonly taken as a measure of viable cells.)
Assay [2] deals with Chorioallantoic membrane. The assay is described as follows: Antiangiogenic activity in chicken fertilized egg chorioallantoic membrane assessed as avascular zone by measuring reduction in number of branching points at 49 ug/kg/day, iv administered as bolus dose on embryo development day 11 for 3 days by epifluorescence microscopic analysis relative to control. The class given is functional. The conditions noted are these: Gallus gallus.

Assay [3] is described as follows: Antiproliferative activity against human A2780cis cells after 72 hrs at 37 degC by MTT assay. The class given is functional, cell-based.
A short description of assay [4]: Antiproliferative activity against immortalized human ECRF24 cells after 72 hrs at 37 degC by CellTiter-Glo luminescence assay. As to conditions: ECRF24, 72 h. Format: functional. In general terms: Cellular ATP, detected with luciferase, serves as a proxy for viable cell number.
Assay [5] concerns HEK293. As to the kind of experiment: Antiproliferative activity against HEK293 cells after 72 hrs at 37 degC by CellTiter-Glo luminescence assay. Format: cell-based. The conditions noted are these: Homo sapiens, HEK293, 72 h.
For assay [6], the system named is Chorioallantoic membrane. As to the kind of experiment: Antiangiogenic activity in chicken fertilized egg chorioallantoic membrane assessed as inhibition vascular sprout formation at 97 ug/kg/day, iv administered as single bolus dose 1 min post 5 Jcm'-2 light irradiation on embryo development day 11 measured 24 hrs post dose by epifluorescence microscopic analysis. The class given is functional, organism-based. As to conditions: Gallus gallus.

In assay [7] the test system is Chorioallantoic membrane. The assay is described as follows: Antiangiogenic activity in chicken fertilized egg chorioallantoic membrane assessed as inhibition of vascular sprout formation at 487 ug/kg/day, iv administered as single bolus dose 1 min post 5 Jcm'-2 light irradiation on embryo development day 11 measured 24 hrs post dose by epifluorescence microscopic analysis. Format: functional, organism-based. As to conditions: Gallus gallus.

For assay [8], the species on record is Homo sapiens. As to the kind of experiment: Antimigratory activity against human ECRF24 cells assessed as wound closure at 6 to 50 uM after 7 hrs by wound healing assay. The class given is functional, cell-based.
Assay [9] relates to Chorioallantoic membrane. As to the kind of experiment: Antiangiogenic activity in chicken fertilized egg chorioallantoic membrane assessed as avascular zone by measuring reduction in number of branching points at 55 ug/kg/day, iv administered as bolus dose on embryo development day 11 for 3 days by epifluorescence microscopic analysis relative to control. Format: functional. As to conditions: Gallus gallus.

Assay [10] relates to A2780. As to the kind of experiment: Antitumor activity against human A2780 cells implanted in chicken fertilized egg chorioallantoic membrane assessed as tumor growth inhibition at 487 ug/kg/day, iv administered as bolus dose on embryo development day 11 for 3 days measured up to 8 days post treatment relative to control. As to conditions: Gallus gallus, read-out: TGI. Format: functional.

In assay [11] the test system is Chorioallantoic membrane. As to the kind of experiment: Antiangiogenic activity in chicken fertilized egg chorioallantoic membrane assessed as avascular zone by measuring reduction in number of branching points at 20 ug/kg/day, iv administered as bolus dose on embryo development day 11 for 3 days by epifluorescence microscopic analysis relative to control. Format: functional. The conditions noted are these: Gallus gallus.

Assay [12] in a line: Antiproliferative activity against embryonic stem cells in intact mouse embryoid bodies. Format: functional, cell-based.
The test system of assay [13] is A2780. As to the kind of experiment: Antitumor activity against human A2780 cells implanted in chicken fertilized egg chorioallantoic membrane assessed as tumor growth inhibition at 435 ug/kg/day, iv administered as bolus dose on embryo development day 11 for 3 days measured up to 8 days post treatment relative to control. Format: functional. As to conditions: Gallus gallus, read-out: TGI.

Assay [14] concerns Chorioallantoic membrane. As to the kind of experiment: Antiangiogenic activity in chicken fertilized egg chorioallantoic membrane assessed as inhibition of vascular sprout formation at 64 ug/kg/day, iv administered as single bolus dose 1 min post 5 Jcm'-2 light irradiation on embryo development day 11 measured 24 hrs post dose by epifluorescence microscopic analysis. Format: functional, organism-based. The conditions noted are these: Gallus gallus.

Assay [15] has as its system Chorioallantoic membrane. As to the kind of experiment: Antiangiogenic activity in chicken fertilized egg chorioallantoic membrane assessed as inhibition of vascular sprout formation at 435 ug/kg/day, iv administered as single bolus dose 1 min post 5 Jcm'-2 light irradiation on embryo development day 11 measured 24 hrs post dose by epifluorescence microscopic analysis. Format: functional, organism-based. As to conditions: Gallus gallus.

Assay [16] concerns A2780. The assay is described as follows: Antitumor activity against human A2780 cells implanted in chicken fertilized egg chorioallantoic membrane assessed as tumor growth inhibition at 64 ug/kg/day, iv administered as bolus dose on embryo development day 11 for 3 days measured up to 8 days post treatment relative to control. The class given is functional. As to conditions: Gallus gallus, read-out: TGI.

The subject of assay [17] is Chorioallantoic membrane. The assay is described as follows: Antiangiogenic activity in chicken fertilized egg chorioallantoic membrane assessed as avascular zone by measuring reduction in number of branching points at 36 ug/kg/day, iv administered as bolus dose on embryo development day 11 for 3 days by epifluorescence microscopic analysis relative to control. Format: functional. The conditions noted are these: Gallus gallus.

For orientation: IC50 means the concentration that inhibits the measured activity by half. Read a high IC50 as weaker potency. On to `O=C(CCCc1ccc(N(CCCl)CCCl)cc1)OCCC(F)(F)C(F)(F)C(F)(F)C(F)(F)C(F)(F)C(F)(F)C(F)(F)C(F)(F)F`, for which the IC50 in [1] worked out at 38 µM; in assay [3] it was 25 µM; in assay [4] it was 52 µM; in [5], 57 µM. Further, the inhibition in vivo at 0.049 mg/kg/day in assay [2] came out at 29%.
Consider `O=C(CCCc1ccc(N(CCCl)CCCl)cc1)OCCC(F)(F)C(F)(F)C(F)(F)C(F)(F)C(F)(F)C(F)(F)C(F)(F)C(F)(F)C(F)(F)C(F)(F)F`, for which the IC50 in assay [1] was more than 200 µM; in assay [3] it was more than 200 µM; in [4], 66 µM; in [5], more than 200 µM. For the same compound, the inhibition entry in [6] and in assay [7] was “inactive” throughout. Moreover, the result in [8] was inactive. Also, in assay [9], the inhibition in vivo at 0.055 mg/kg/day turned out to be 59%. Also, the inhibition in vivo at 0.487 mg/kg/day in [10] stood at 70%.
`O=C(O)CCCc1ccc(N(CCCl)CCCl)cc1` [CHLORAMBUCIL]: the IC50 is 12 µM in assay [1]; 43 µM in [3]; 8 µM in assay [4]; 25 µM in [5]; 1.25 µg/mL (≈ 4.11 µM) in assay [12]. For the same compound, the inhibition in vivo at 0.02 mg/kg/day in assay [11] came to 33%.
As for `CCCCCCCCCCCCCCCCCCOC(=O)CCCc1ccc(N(CCCl)CCCl)cc1`, the IC50 in [1] was more than 200 µM; in assay [3], more than 200 µM; in assay [4], 89 µM; in assay [5], more than 200 µM. The outcome in assay [8] was inactive. For the same compound, the inhibition in vivo at 0.435 mg/kg/day in assay [13] amounted to 49.5%. The inhibition entry in assay [14] is “Active”. In addition, in assay [15], the inhibition result is “inactive”. Besides, the inhibition in vivo at 0.064 mg/kg/day in assay [16] worked out at 53%. Besides, in [17], the inhibition in vivo at 0.036 mg/kg/day came to 20%.
